Calls of active or inactive are those of the source. The rule behind the calls is not given here.
Assays:
Assay type in all cases: functional, organism-based
Bacillus pumilus = assay: Antimicrobial activity against Bacillus pumilus at 1 mg/mL by cup diffusion method
Bacillus subtilis = assay: Antimicrobial activity against Bacillus subtilis at 1 mg/mL by cup diffusion method
Staphylococcus aureus = assay: Antimicrobial activity against Staphylococcus aureus at 1 mg/mL by cup diffusion method
Escherichia coli = assay: Antimicrobial activity against Escherichia coli at 1 mg/mL by cup diffusion method
Proteus vulgaris = assay: Antimicrobial activity against Proteus vulgaris at 1 mg/mL by cup diffusion method
Pseudomonas aeruginosa = assay: Antimicrobial activity against Pseudomonas aeruginosa at 1 mg/mL by cup diffusion method
Candida albicans = assay: Antimicrobial activity against Candida albicans
Aspergillus niger = assay: Antimicrobial activity against Aspergillus niger

Row | Compound | Activity (Bacillus pumilus) | Activity (Bacillus subtilis) | Activity (Staphylococcus aureus) | Activity (Escherichia coli) | Activity (Proteus vulgaris) | Activity (Pseudomonas aeruginosa) | Activity (Candida albicans) | Activity (Aspergillus niger)
1 | CCCCCCCCCCCCCCCCCCCCCC(=O)N[C@@H](CO)[C@H](O)CCCCCCCCCCCCCCCC | Active | Active | Active | Active | Active | Active | inactive | inactive
2 | CCCCCCCCCCCCC/C=C/[C@@H](O)[C@H](CO)NC(=O)CCCCCCCCCCCCCCCC | Active | Active | Active | Active | Active | Active | inactive | inactive
3 | CCCCCCCCCCCCCCCCC[C@@H](O)C(=O)N[C@@H](CO)[C@H](O)[C@H](O)CCCCCCCCCCCCCCC | Active | Active | Active | Active | Active | Active | inactive | inactive

Reference: ChEMBL document CHEMBL1148212, “New sphingosines from a gorgonian, Pseudopterogorgia australiensis Ridley, of the Indian Ocean” (J Nat Prod, 2004)
